Laboratory results from publication PMC4519859, “Synthesis and Biological Evaluation of Novel Dehydroabietic Acid Derivatives Conjugated with Acyl-Thiourea Peptide Moiety as Antitumor Agents” (International Journal of Molecular Sciences, 2015).

Legend:
Assay type in all cases: cell-based
[1] = test system: HL-7702; assay: MTT cytotoxicity assay, HL-7702 normal cells; conditions: L02, 48 h, normal human cells, mean ± SD, three independent experiments
Protocol: [The source words this procedure for another cell line and reports this cell line under the same test.] (§1) The in vitro cytotoxic potency of DHAA acyl-thiourea derivatives 8a–8o and 9a–9o were evaluated by 3-(4,5-dimethylthiazol-2-yl)-2,5-diphenyltetrazolium bromide (MTT) assay against HeLa, SK-OV-3 and MGC-803 tumor cell lines, with 5-FU as the positive control.
(§2) General procedure for cytotoxic evaluation in vitro: HeLa, HepG2, SK-OV-3 and MGC-803 cells were seeded into 96-well microculture plates and allowed to adhere for 24 h, respectively. After cells were exposed to compounds at concentrations from 100 to 0.01 μM for 48 h, medium was aspirated and replenished with complete medium. IC50 was evaluated by MTT tetrazolium dye assay. Each experiment was performed three times; Statistical analysis: All statistical analysis was performed with SPSS Version 10 (SPSS, Chicago, IL, USA). Data was analyzed by one-way ANOVA. Mean separations were performed using the least significant difference method. Each experiment was replicated thrice, and all experiments yielded similar results. Measurements from all the replicates were combined, and treatment effects were analyzed.

[2] = test system: HeLa; assay: MTT cytotoxicity assay, HeLa; conditions: Homo sapiens, 48 h, mean ± SD, three independent experiments
Protocol: as §1, §2

[3] = test system: SK-OV-3; assay: MTT cytotoxicity assay, SK-OV-3; conditions: Homo sapiens, 48 h, mean ± SD, three independent experiments
Protocol: as §1, §2

[4] = test system: MGC-803; assay: MTT cytotoxicity assay, MGC-803; conditions: Homo sapiens, 48 h, mean ± SD, three independent experiments
Protocol: as §1, §2

SMILES | IC50 [1] | IC50 [2] | IC50 [3] | IC50 [4]
CC(C)c1ccc2c(c1)CCC1[C@](C)(C(=O)NC(=S)N[C@H](C)C(=O)Nc3ccc(F)cc3)CCC[C@]21C (stereo partly drawn) [Compound 8i, (1R,4aS)-N-(((R)-1-((4-Fluorophenyl)amino)-1-oxopropan-2-yl)carbamothioyl)-7-isopropyl-1,4a-dimethyl-1,2,3,4,4a,9,10,10a-octahydrophenanthrene-1-carboxamide] | 54.5 ± 2.34 µM | 30.2 ± 2.55 µM | 32.5 ± 2.64 µM | 29.4 ± 2.77 µM
CC(C)c1ccc2c(c1)CCC1[C@](C)(C(=O)NC(=S)N[C@H](C)C(=O)Nc3ccccc3Br)CCC[C@]21C (stereo partly drawn) [Compound 8j, (1R,4aS)-N-(((R)-1-((2-Bromophenyl)amino)-1-oxopropan-2-yl)carbamothioyl)-7-isopropyl-1,4a-dimethyl-1,2,3,4,4a,9,10,10a-octahydrophenanthrene-1-carboxamide] | 59.6 ± 3.54 µM | 22.8 ± 1.55 µM | 39.1 ± 3.56 µM | 27.9 ± 3.26 µM
CC(C)c1ccc2c(c1)CCC1[C@](C)(C(=O)NC(=S)N[C@H](C)C(=O)Nc3ccc(Br)cc3)CCC[C@]21C (stereo partly drawn) [Compound 8k, (1R,4aS)-N-(((R)-1-((4-Bromophenyl)amino)-1-oxopropan-2-yl)carbamothioyl)-7-isopropyl-1,4a-dimethyl-1,2,3,4,4a,9,10,10a-octahydrophenanthrene-1-carboxamide] | 54.6 ± 3.65 µM | 19 ± 1.46 µM | 40.8 ± 3.57 µM | 30 ± 1.24 µM
Cc1cc(C)cc(NC(=O)[C@@H](C)NC(=S)NC(=O)[C@]2(C)CCC[C@]3(C)c4ccc(C(C)C)cc4CCC23)c1 (stereo partly drawn) [Compound 8l, (1R,4aS)-N-(((R)-1-((3,5-Dimethylphenyl)amino)-1-oxopropan-2-yl)carbamothioyl)-7-isopropyl-1,4a-dimethyl-1,2,3,4,4a,9,10,10a-octahydrophenanthrene-1-carboxamide] | 55.3 ± 2.65 µM | 18.6 ± 1.24 µM | 33 ± 2.59 µM | 13.9 ± 1.32 µM
CC(C)c1ccc2c(c1)CCC1[C@](C)(C(=O)NC(=S)N[C@H](C)C(=O)Nc3cccc4ccccc34)CCC[C@]21C (stereo partly drawn) [Compound 8m, (1R,4aS)-7-Isopropyl-1,4a-dimethyl-N-(((R)-1-(naphthalen-1-ylamino)-1-oxopropan-2-yl)carbamothioyl)-1,2,3,4,4a,9,10,10a-octahydrophenanthrene-1-carboxamide] | 59.5 ± 4.65 µM | 46.6 ± 4.77 µM | 49.4 ± 4.64 µM | 36.5 ± 3.24 µM
CC(C)c1ccc2c(c1)CCC1[C@](C)(C(=O)NC(=S)N[C@H](C)C(=O)Nc3ccccn3)CCC[C@]21C (stereo partly drawn) [Compound 8n, (1R,4aS)-7-Isopropyl-1,4a-dimethyl-N-(((R)-1-oxo-1-(pyridin-2-ylamino)propan-2-yl)carbamothioyl)-1,2,3,4,4a,9,10,10a-octahydrophenanthrene-1-carboxamide] | 48.8 ± 2.44 µM | 14.3 ± 1.33 µM | 25.2 ± 2.43 µM | 19.3 ± 1.32 µM
COc1cc(NC(=O)[C@@H](C)NC(=S)NC(=O)[C@]2(C)CCC[C@]3(C)c4ccc(C(C)C)cc4CCC23)cc(OC)c1OC (stereo partly drawn) [Compound 8o, (1R,4aS)-7-Isopropyl-1,4a-dimethyl-N-(((R)-1-oxo-1-((3,4,5-trimethoxyphenyl)amino)propan-2-yl)carbamothioyl)-1,2,3,4,4a,9,10,10a-octahydrophenanthrene-1-carboxamide] | 49.2 ± 2.65 µM | 18.1 ± 1.23 µM | 29.6 ± 2.67 µM | 22.7 ± 1.77 µM
CC(C)c1ccc2c(c1)CCC1[C@](C)(C(=O)NC(=S)N[C@H](Cc3ccccc3)C(=O)Nc3ccccc3)CCC[C@]21C (stereo partly drawn) [Compound 9a, (1R,4aS)-7-Isopropyl-1,4a-dimethyl-N-(((R)-1-oxo-3-phenyl-1-(phenylamino)propan-2-yl)carbamothioyl)-1,2,3,4,4a,9,10,10a-octahydrophenanthrene-1-carboxamide] | 37.5 ± 1.44 µM | 25.7 ± 2.23 µM | 17 ± 1.13 µM | 26.6 ± 3.25 µM
Cc1ccccc1NC(=O)[C@@H](Cc1ccccc1)NC(=S)NC(=O)[C@]1(C)CCC[C@]2(C)c3ccc(C(C)C)cc3CCC12 (stereo partly drawn) [Compound 9b, (1R,4aS)-7-Isopropyl-1,4a-dimethyl-N-(((R)-1-oxo-3-phenyl-1-(o-tolylamino)propan-2-yl)carbamothioyl)-1,2,3,4,4a,9,10,10a-octahydrophenanthrene-1-carboxamide] | 38.6 ± 1.65 µM | 17.7 ± 1.34 µM | 18.5 ± 1.44 µM | 14.1 ± 1.12 µM
Cc1ccc(NC(=O)[C@@H](Cc2ccccc2)NC(=S)NC(=O)[C@]2(C)CCC[C@]3(C)c4ccc(C(C)C)cc4CCC23)cc1 (stereo partly drawn) [Compound 9c, (1R,4aS)-7-Isopropyl-1,4a-dimethyl-N-(((R)-1-oxo-3-phenyl-1-(p-tolylamino)propan-2-yl)carbamothioyl)-1,2,3,4,4a,9,10,10a-octahydrophenanthrene-1-carboxamide] | 36.2 ± 1.39 µM | 19.1 ± 1.08 µM | 16.2 ± 1.98 µM | 19.2 ± 1.66 µM
CC(C)c1ccc2c(c1)CCC1[C@](C)(C(=O)NC(=S)N[C@H](Cc3ccccc3)C(=O)Nc3ccccc3Cl)CCC[C@]21C (stereo partly drawn) [Compound 9d, (1R,4aS)-N-(((R)-1-((2-Chlorophenyl)amino)-1-oxo-3-phenylpropan-2-yl)carbamothioyl)-7-isopropyl-1,4a-dimethyl-1,2,3,4,4a,9,10,10a-octahydrophenanthrene-1-carboxamide] | 36.5 ± 1.43 µM | 17 ± 1.76 µM | 16.9 ± 1.43 µM | 20.4 ± 3.41 µM
CC(C)c1ccc2c(c1)CCC1[C@](C)(C(=O)NC(=S)N[C@H](Cc3ccccc3)C(=O)Nc3ccc(Cl)cc3)CCC[C@]21C (stereo partly drawn) [Compound 9e, (1R,4aS)-N-(((R)-1-((4-Chlorophenyl)amino)-1-oxo-3-phenylpropan-2-yl)carbamothioyl)-7-isopropyl-1,4a-dimethyl-1,2,3,4,4a,9,10,10a-octahydrophenanthrene-1-carboxamide] | 38.5 ± 1.22 µM | 17.2 ± 1.25 µM | 18.5 ± 1.27 µM | 17.1 ± 2.87 µM
COc1ccccc1NC(=O)[C@@H](Cc1ccccc1)NC(=S)NC(=O)[C@]1(C)CCC[C@]2(C)c3ccc(C(C)C)cc3CCC12 (stereo partly drawn) [Compound 9f, (1R,4aS)-7-Isopropyl-N-(((R)-1-((2-methoxyphenyl)amino)-1-oxo-3-phenylpropan-2-yl)carbamothioyl)-1,4a-dimethyl-1,2,3,4,4a,9,10,10a-octahydrophenanthrene-1-carboxamide] | 38.4 ± 1.45 µM | 28.1 ± 2.23 µM | 18.9 ± 1.72 µM | 20.7 ± 1.41 µM
COc1ccc(NC(=O)[C@@H](Cc2ccccc2)NC(=S)NC(=O)[C@]2(C)CCC[C@]3(C)c4ccc(C(C)C)cc4CCC23)cc1 (stereo partly drawn) [Compound 9g, (1R,4aS)-7-Isopropyl-N-(((R)-1-((4-methoxyphenyl)amino)-1-oxo-3-phenylpropan-2-yl)carbamothioyl)-1,4a-dimethyl-1,2,3,4,4a,9,10,10a-octahydrophenanthrene-1-carboxamide] | 41.1 ± 1.32 µM | 15.6 ± 1.53 µM | 20.1 ± 1.78 µM | 26.1 ± 2.63 µM
CC(C)c1ccc2c(c1)CCC1[C@](C)(C(=O)NC(=S)N[C@H](Cc3ccccc3)C(=O)Nc3ccccc3F)CCC[C@]21C (stereo partly drawn) [Compound 9h, (1R,4aS)-N-(((R)-1-((2-Fluorophenyl)amino)-1-oxo-3-phenylpropan-2-yl)carbamothioyl)-7-isopropyl-1,4a-dimethyl-1,2,3,4,4a,9,10,10a-octahydrophenanthrene-1-carboxamide] | 49.4 ± 2.64 µM | 18.8 ± 1.45 µM | 28.8 ± 2.32 µM | 24.7 ± 3.33 µM
CC(C)c1ccc2c(c1)CCC1[C@](C)(C(=O)NC(=S)N[C@H](Cc3ccccc3)C(=O)Nc3ccc(F)cc3)CCC[C@]21C (stereo partly drawn) [Compound 9i, (1R,4aS)-N-(((R)-1-((4-Fluorophenyl)amino)-1-oxo-3-phenylpropan-2-yl)carbamothioyl)-7-isopropyl-1,4a-dimethyl-1,2,3,4,4a,9,10,10a-octahydrophenanthrene-1-carboxamide] | 46.4 ± 2.44 µM | 23.7 ± 1.01 µM | 26.5 ± 2.07 µM | 21.4 ± 1.88 µM
CC(C)c1ccc2c(c1)CCC1[C@](C)(C(=O)NC(=S)N[C@H](Cc3ccccc3)C(=O)Nc3ccccc3Br)CCC[C@]21C (stereo partly drawn) [Compound 9j, (1R,4aS)-N-(((R)-1-((2-Bromophenyl)amino)-1-oxo-3-phenylpropan-2-yl)carbamothioyl)-7-isopropyl-1,4a-dimethyl-1,2,3,4,4a,9,10,10a-octahydrophenanthrene-1-carboxamide] | 60.5 ± 3.43 µM | 12.7 ± 1.03 µM | 40.3 ± 3.41 µM | 21.3 ± 1.27 µM
CC(C)c1ccc2c(c1)CCC1[C@](C)(C(=O)NC(=S)N[C@H](Cc3ccccc3)C(=O)Nc3ccc(Br)cc3)CCC[C@]21C (stereo partly drawn) [Compound 9k, (1R,4aS)-N-(((R)-1-((4-Bromophenyl)amino)-1-oxo-3-phenylpropan-2-yl)carbamothioyl)-7-isopropyl-1,4a-dimethyl-1,2,3,4,4a,9,10,10a-octahydrophenanthrene-1-carboxamide] | 66.5 ± 4.48 µM | 15.7 ± 1.13 µM | 46.7 ± 4.76 µM | 25.5 ± 2.47 µM
Cc1cc(C)cc(NC(=O)[C@@H](Cc2ccccc2)NC(=S)NC(=O)[C@]2(C)CCC[C@]3(C)c4ccc(C(C)C)cc4CCC23)c1 (stereo partly drawn) [Compound 9l, (1R,4aS)-N-(((R)-1-((3,5-Dimethylphenyl)amino)-1-oxo-3-phenylpropan-2-yl)carbamothioyl)-7-isopropyl-1,4a-dimethyl-1,2,3,4,4a,9,10,10a-octahydrophenanthrene-1-carboxamide] | 53.4 ± 2.24 µM | 15.8 ± 1.55 µM | 31.5 ± 2.23 µM | 18.1 µM
